Data: paper PMC9490236, “Accurate de novo design of membrane-traversing macrocycles” (Cell, 2022)
Where a SMILES comes first, the peptide text is derived from it. [ ]: non-standard residue; d: D form. dNMeF = CN[C@H](Cc1ccccc1)C(=O)O

Key:
[1] = PAMPA
in vitro = conditions: PAMPA, PAMPA_Papp_Avg

SMILES	PAMPA_R1 [1]	PAMPA_R3 [1]	Papp (in vitro) [×10⁻⁶ cm/s]
CC(C)C[C@H]1NC(=O)[C@@H]2CCCN2C(=O)[C@H]2CCCN2C(=O)[C@H](C(C)C)NC(=O)[C@@H](CC(C)C)NC(=O)[C@@H]2CCCN2C(=O)[C@H]2CCCN2C(=O)[C@H](C(C)C)NC1=O (single isomer, unassigned) [D8.12 p1, DLEU VAL DPRO PRO DLEU VAL DPRO PRO]	1.52E-07	1.92E-07	0.169
CC(C)[C@@H]1C(=O)N[C@@H](Cc2ccccc2)C(=O)N2CCC[C@H]2C(=O)N(C)[C@H](Cc2ccccc2)C(=O)N[C@H](C)C(=O)N2CCC[C@H]2C(=O)N1C (single isomer, unassigned) [Design D6.8.p1, *DPHE DALA PRO *DVAL PHE PRO]	4.07e-06 cm/s	3.58e-06 cm/s	3.47
CC(C)C[C@H]1C(=O)N2CCC[C@@H]2C(=O)N[C@@H](Cc2ccccc2)C(=O)N2CCC[C@H]2C(=O)N[C@H](C(C)C)C(=O)N[C@H](Cc2ccccc2)C(=O)N1C (single isomer, unassigned) [Design D6.9.p1, DVAL DPHE *LEU DPRO PHE PRO]	4.01e-06 cm/s	6.97e-06 cm/s	5.29
CC(C)C[C@H]1NC(=O)[C@H]2CCCN2C(=O)[C@@H]2CCCN2C(=O)[C@@H](Cc2ccccc2)NC(=O)[C@@H](C(C)C)NC(=O)[C@H](CC(C)C)N(C)C(=O)[C@@H](Cc2ccccc2)NC1=O (single isomer, unassigned) [Design D7.7.p1, PRO DPRO DLEU DPHE *LEU DVAL DPHE]	8.16e-06 cm/s	9.31e-06 cm/s	8.43
CC[C@H](C)[C@@H]1NC(=O)[C@H](Cc2ccccc2)NC(=O)[C@H]2CCCN2C(=O)[C@H]([C@@H](C)CC)NC(=O)[C@H](C(C)C)NC(=O)[C@@H](C)NC(=O)[C@H]2CCCN2C1=O (single isomer, unassigned) [Design D7.8.p1, VAL ILE DPRO PHE ILE DPRO DALA]	4.5e-06 cm/s	6.04e-06 cm/s	4.87
CC[C@@H](C)[C@H]1NC(=O)[C@H](CC(C)C)N(C)C(=O)[C@H]2CCCN2C(=O)[C@H](CC(C)C)NC(=O)[C@H](Cc2ccccc2)N(C)C(=O)CN(C)C(=O)[C@@H](C(C)C)NC(=O)[C@H](C)NC(=O)[C@H]2CCCN2C(=O)[C@@H]2CCCN2C1=O (single isomer, unassigned) [Design D10.58.p1, *GLY *PHE LEU DPRO *LEU DILE PRO DPRO ALA DVAL]	3.35E-07	4.44E-07	0.376
CC[C@@H](C)[C@H]1NC(=O)[C@H](CC(C)C)N(C)C(=O)[C@H]2CCCN2C(=O)[C@H](CC(C)C)NC(=O)[C@@H](Cc2ccccc2)N(C)C(=O)[C@H](CC(C)C)N(C)C(=O)[C@@H](C(C)C)NC(=O)[C@H](C)NC(=O)[C@H]2CCCN2C(=O)[C@@H]2CCCN2C1=O (single isomer, unassigned) [Design D10.60.p1, *LEU *DPHE LEU DPRO *LEU DILE PRO DPRO ALA DVAL]	6.58E-07	1.13E-06	0.65
CC(C)C[C@@H]1C(=O)N(C)[C@@H](CC(C)C)C(=O)N2CCC[C@@H]2C(=O)N[C@H](CC(C)C)C(=O)N[C@H](C)C(=O)N2CCC[C@@H]2C(=O)N2CCC[C@H]2C(=O)N[C@@H](C)C(=O)N[C@H](Cc2ccccc2)C(=O)N[C@H](CC(C)C)C(=O)N[C@@H](C(C)C)C(=O)N1C (single isomer, unassigned) [Design D11.9.p1, VAL *DLEU *LEU DPRO DLEU DALA DPRO PRO ALA DPHE DLEU]	1.04E-06	2.42E-07	0.641
CC[C@@H](C)[C@H]1NC(=O)[C@@H](Cc2ccccc2)NC(=O)[C@@H]2CCCN2C(=O)[C@@H]([C@H](C)CC)NC(=O)[C@@H](Cc2ccccc2)NC(=O)[C@@H]2CCCN2C1=O [Design D6.1, DILE PRO DPHE DILE PRO DPHE] (cyclo(P[dF][dI]P[dF][dI]))	3.78e-06 cm/s	3.92e-06 cm/s	3.34
CC[C@@H](C)[C@H]1NC(=O)[C@@H](Cc2ccccc2)N(C)C(=O)[C@@H]2CCCN2C(=O)[C@@H]([C@H](C)CC)NC(=O)[C@@H](Cc2ccccc2)N(C)C(=O)[C@@H]2CCCN2C1=O [Design D6.2, DILE PRO *DPHE DILE PRO *DPHE] (cyclo(P[dNMeF][dI]P[dNMeF][dI]))	1.72e-05 cm/s	1.15e-05 cm/s	12.1
CC(C)C[C@H]1NC(=O)[C@@H]2CCCN2C(=O)[C@@H]2CCCN2C(=O)[C@@H](C)NC(=O)[C@@H](Cc2ccccc2)NC(=O)[C@H]2CCCN2C1=O [Design D6.3, DPRO DPHE DALA PRO PRO DLEU] (cyclo(PP[dL][dP][dF][dA]))	5.23e-06 cm/s	7.03e-07 cm/s	1.99
CC(C)C[C@H]1NC(=O)[C@@H]2CCCN2C(=O)[C@@H]2CCCN2C(=O)[C@@H](C)NC(=O)[C@@H](Cc2ccccc2)N(C)C(=O)[C@H]2CCCN2C1=O [Design D6.4, DPRO *DPHE DALA PRO PRO DLEU] (cyclo(PP[dL][dP][dNMeF][dA]))	1.85e-05 cm/s	1.58e-05 cm/s	13.9
CC(C)[C@@H]1NC(=O)[C@@H]2CCCN2C(=O)[C@@H]2CCCN2C(=O)[C@@H](Cc2ccccc2)NC(=O)[C@@H]2CCCN2C(=O)[C@@H](Cc2ccccc2)NC1=O [Design D6.5, PRO PRO VAL DPHE PRO DPHE] (cyclo(PPV[dF]P[dF]))	3.17e-06 cm/s	3.12e-06 cm/s	2.41
